{
  "source": "patent US20250163104A1",
  "about": "“MACROCYCLIC IMMUNOMODULATORS” (priority 2021, published 2025)",
  "note": "Where a SMILES comes first, the peptide text is derived from it. Bridges are numbered along the chain shown (N, C = ends). [ ]: non-standard residue; d: D form. The star is where a group is joined. ξ: configuration not given here. Phe(3-CF3) = N[C@@H](Cc1cccc(C(F)(F)F)c1)C(=O)O; Phe(4-COOH) = N[C@@H](Cc1ccc(C(=O)O)cc1)C(=O)O; Bip = N[C@@H](Cc1ccc(-c2ccccc2)cc1)C(=O)O; Phe(3-Me) = Cc1cccc(C[C@H](N)C(=O)O)c1; Val(3-OH) = CC(C)(O)[C@H](N)C(=O)O; 4Pal = N[C@@H](Cc1ccncc1)C(=O)O; Cha = N[C@@H](CC1CCCCC1)C(=O)O; Cit = NC(=O)NCCC[C@H](N)C(=O)O; Thr(3ξ) = CC(O)[C@H](N)C(=O)O; Carboxymethyl = O=C(O)C*; Nle = CCCC[C@H](N)C(=O)O; Orn = NCCC[C@H](N)C(=O)O; Dab = NCC[C@H](N)C(=O)O",
  "data": [
    {"target": "T1, human PD-1 / PD-L1-Ig binding on Jurkat cell line over-expressing human PD-1 (Jurkat-PD-1) (Homo sapiens, UniProt Q15116)", "T1 construct": "expressed in transfected cells; host or cells: Jurkat", "T1 sequence (Q15116 25-288)": "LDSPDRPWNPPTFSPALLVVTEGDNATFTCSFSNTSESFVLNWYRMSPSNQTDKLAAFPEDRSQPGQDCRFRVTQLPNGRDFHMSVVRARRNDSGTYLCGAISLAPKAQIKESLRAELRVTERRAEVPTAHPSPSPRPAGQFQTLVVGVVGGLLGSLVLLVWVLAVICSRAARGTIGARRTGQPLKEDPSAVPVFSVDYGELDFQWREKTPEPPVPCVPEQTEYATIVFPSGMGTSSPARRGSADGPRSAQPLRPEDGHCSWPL", "test": "Jurkat-PD-1 Cell Binding High-Content Screening Assay (CBA)", "format": "cell-based", "conditions": "Jurkat-PD-1 cells, PE-labeled PD-L1-Ig 20 nM final; read-out: Jurkat HPD1_PDL1 IC50", "procedure,_shortened": "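Compounds were preincubated with Jurkat-hPD-1 cells in DMEM plus 10% fetal calf serum for 2 h at 37° C. Phycoerythrin-labeled PD-L1-Ig (20 nM final) was then added for 1 hour. Cells were fixed in 4% paraformaldehyde with Hoechst 33342, and bound fluorescence was quantified by high-content imaging.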", "units": {"IC50": "nM"}, "values": [
      {"compound": "Cc1cccc(C[C@@H]2NC(=O)[C@H](CC(=O)O)NC(=O)[C@H](Cc3ccc(OCC(=O)O)cc3)NC(=O)[C@H](Cc3ccncc3)NC(=O)CSC[C@@H](C(=O)N[C@@H](C)C(N)=O)NC(=O)[C@H]([C@@H](C)O)NC(=O)[C@H](C(C)C)NC(=O)[C@H](CC(C)C)NC(=O)[C@H](CCN)NC(=O)[C@@H](CC(C)C)NC(=O)[C@H](CCCN)NC(=O)[C@H](CCCNC(N)=O)NC(=O)[C@H](Cc3ccc(-c4ccccc4)cc3)NC(=O)[C@H](C(C)C)NC2=O)c1", "note": "[Compound 1184] ({CH2CO}-[4Pal]Y(Carboxymethyl)D[Phe(3-Me)]V[Bip][Cit][Orn][dL][Dab]LVTCA-NH2; thioether N-14)", "IC50": 6.2},
      {"compound": "CC(C)C[C@H]1NC(=O)[C@H](CCCN)NC(=O)[C@H](CCC(=O)O)NC(=O)[C@H](Cc2ccc(-c3ccccc3)cc2)NC(=O)[C@H](C(C)C)NC(=O)[C@H](Cc2ccc(F)cc2)NC(=O)[C@H](CC(=O)O)NC(=O)[C@H](Cc2ccc(OCC(=O)O)cc2)NC(=O)[C@H](CN)NC(=O)CSC[C@@H](C(=O)N[C@@H](C)C(N)=O)NC(=O)[C@H]([C@@H](C)O)NC(=O)[C@H](C(C)C)NC(=O)[C@H](CC2CCCCC2)NC(=O)[C@H](CCN)NC1=O", "note": "[Compound 2147]", "IC50": 12},
      {"compound": "CC(C)C[C@H]1NC(=O)[C@H](CCCN)NC(=O)[C@H](CCCNC(N)=O)NC(=O)[C@H](Cc2ccc(-c3ccccc3)cc2)NC(=O)[C@H](C(C)C)NC(=O)[C@H](Cc2c[nH]c3ccccc23)NC(=O)[C@H](CC(=O)O)NC(=O)[C@H](Cc2ccncc2)NC(=O)[C@H](CN)NC(=O)CSC[C@@H](C(=O)N[C@@H](C)C(N)=O)NC(=O)[C@H]([C@@H](C)O)NC(=O)[C@H](C(C)C)NC(=O)[C@H](CC2CCCCC2)NC(=O)[C@H](CCN)NC1=O", "note": "[Compound 2096]", "IC50": 4.5},
      {"compound": "Cc1cccc(C[C@@H]2NC(=O)[C@H](CC(=O)O)NC(=O)[C@H](Cc3ccc(OCC(=O)O)cc3)NC(=O)[C@H](Cc3ccncc3)NC(=O)CSC[C@@H](C(=O)N[C@@H](CCN)C(N)=O)NC(=O)[C@H](C(C)O)NC(=O)[C@H](C(C)(C)O)NC(=O)[C@H](CC3CCCCC3)NC(=O)[C@H](CCN)NC(=O)[C@@H](CC(C)C)NC(=O)[C@H](CCCN)NC(=O)[C@H](CCCNC(N)=O)NC(=O)[C@H](Cc3ccc(-c4ccccc4)cc3)NC(=O)[C@H](C(C)C)NC2=O)c1", "note": "(stereo partly drawn) [Compound 2630] ({CH2CO}-[4Pal]Y(Carboxymethyl)D[Phe(3-Me)]V[Bip][Cit][Orn][dL][Dab][Cha][Val(3-OH)][Thr(3ξ)]C[Dab]-NH2; thioether N-14)", "IC50": 12.3},
      {"compound": "CC(C)C[C@H]1NC(=O)[C@H](CCCN)NC(=O)[C@H](C(C)C)NC(=O)[C@H](Cc2ccc(-c3ccccc3)cc2)NC(=O)[C@H](C(C)C)NC(=O)[C@H](Cc2cccc(Cl)c2)NC(=O)[C@H](CC(=O)O)NC(=O)[C@H](Cc2ccc(OCC(=O)O)cc2)NC(=O)[C@H](Cc2ccc(OCC(=O)O)cc2)NC(=O)CSC[C@@H](C(=O)N[C@@H](C)C(N)=O)NC(=O)[C@H]([C@@H](C)O)NC(=O)[C@H](C(C)C)NC(=O)[C@H](CC2CCCCC2)NC(=O)[C@H](CCN)NC1=O", "note": "[Compound 1573]", "IC50": 18.1},
      {"compound": "Cc1cccc(C[C@@H]2NC(=O)[C@H](CC(=O)O)NC(=O)[C@H](Cc3ccc(O)cc3)NC(=O)[C@H](CC(N)=O)NC(=O)CSC[C@@H](C(=O)N[C@@H](C)C(N)=O)NC(=O)[C@H]([C@@H](C)O)NC(=O)[C@H](C(C)C)NC(=O)[C@H](CC3CCCCC3)NC(=O)[C@H](Cc3cnc[nH]3)NC(=O)[C@@H](CC(C)C)NC(=O)[C@H](CCCN)NC(=O)[C@H](C(C)C)NC(=O)[C@H](Cc3ccc(-c4ccccc4)cc3)NC(=O)[C@H](C(C)C)NC2=O)c1", "note": "[Compound 1586] ({CH2CO}-NYD[Phe(3-Me)]V[Bip]V[Orn][dL]H[Cha]VTCA-NH2; thioether N-14)", "IC50": 17.7},
      {"compound": "CC(C)C[C@@H]1NC(=O)[C@H](Cc2c[nH]c3ccccc23)NC(=O)[C@H](CC(=O)O)NC(=O)[C@H](Cc2ccc(O)cc2)NC(=O)[C@H](Cc2ccccc2)NC(=O)CSC[C@@H](C(=O)N[C@@H](C)C(N)=O)NC(=O)[C@H](CO)NC(=O)[C@H](C(C)C)NC(=O)[C@H](CC(C)C)NC(=O)[C@H](CCN)NC(=O)[C@@H](CC(C)C)NC(=O)[C@H](CCCN)NC(=O)[C@H](C(C)C)NC(=O)[C@H](Cc2ccc(-c3ccccc3)cc2)NC1=O", "note": "[Compound 1069] ({CH2CO}-FYDWL[Bip]V[Orn][dL][Dab]LVSCA-NH2; thioether N-14)", "IC50": 13.9},
      {"compound": "CC(C)C[C@@H]1NC(=O)[C@H](Cc2c[nH]c3ccccc23)NC(=O)[C@H](CC(=O)O)NC(=O)[C@H](Cc2ccc(OCC(=O)O)cc2)NC(=O)[C@H](C(C)O)NC(=O)CSC[C@@H](C(N)=O)NC(=O)[C@H](CO)NC(=O)[C@H](C(C)C)NC(=O)[C@H](CC2CCCCC2)NC(=O)[C@H](Cc2cnc[nH]2)NC(=O)[C@@H](CC(C)C)NC(=O)[C@H](CCC(=O)O)NC(=O)[C@H](C(C)C)NC(=O)[C@H](Cc2ccc(-c3ccccc3)cc2)NC1=O", "note": "(stereo partly drawn) [Compound 2609] ({CH2CO}-[Thr(3ξ)]Y(Carboxymethyl)DWL[Bip]VE[dL]H[Cha]VSC-NH2; thioether N-14)", "IC50": 89.1},
      {"compound": "CCCC[C@@H]1NC(=O)CSC[C@@H](C(=O)N[C@@H](CCN)C(N)=O)NC(=O)[C@H](CO)NC(=O)[C@H](C(C)(C)O)NC(=O)[C@H](CC2CCCCC2)NC(=O)[C@H](CCN)NC(=O)[C@@H](CC(C)C)NC(=O)[C@H](CCCN)NC(=O)[C@H](Cc2ccc(C(=O)O)cc2)NC(=O)[C@H](Cc2ccc(-c3ccccc3)cc2)NC(=O)[C@H](Cc2ccc(C(=O)O)cc2)NC(=O)[C@H](Cc2cccc(C(F)(F)F)c2)NC(=O)[C@H](CC(=O)O)NC(=O)[C@H](Cc2ccc(OCC(=O)O)cc2)NC1=O", "note": "[Example 2713] ({CH2CO}-[Nle]Y(Carboxymethyl)D[Phe(3-CF3)][Phe(4-COOH)][Bip][Phe(4-COOH)][Orn][dL][Dab][Cha][Val(3-OH)]SC[Dab]-NH2; thioether N-14)", "IC50": 0.7},
      {"compound": "CC[C@H](C)[C@@H]1NC(=O)[C@H](Cc2ccc(-c3ccccc3)cc2)NC(=O)[C@H](C(C)C)NC(=O)[C@H](Cc2c[nH]c3ccccc23)NC(=O)[C@H](CC(=O)O)NC(=O)[C@H](Cc2ccc(OCC(=O)O)cc2)NC(=O)[C@H](CN)NC(=O)CSC[C@@H](C(=O)N[C@@H](C)C(N)=O)NC(=O)[C@H]([C@@H](C)O)NC(=O)[C@H](C(C)C)NC(=O)[C@H](CC2CCCCC2)NC(=O)[C@H](CCN)NC(=O)[C@@H](CC(C)C)NC(=O)[C@H](CCCN)NC1=O", "note": "[Compound 1391]", "IC50": 5},
      {"compound": "CC(=O)NCCC[C@@H]1NC(=O)[C@H](Cc2ccc(OCC(=O)O)cc2)NC(=O)[C@H](Cc2ccc(-c3ccccc3)cc2)NC(=O)[C@H](Cc2ccc(O)cc2)NC(=O)[C@H](Cc2cccc(C)c2)NC(=O)[C@H](CC(=O)O)NC(=O)[C@H](Cc2ccc(OCC(=O)O)cc2)NC(=O)[C@H](CCCNC(=N)N)NC(=O)CSC[C@@H](C(N)=O)NC(=O)[C@H]([C@@H](C)O)NC(=O)[C@H](C(C)C)NC(=O)[C@H](CC2CCCCC2)NC(=O)[C@H](CCN)NC(=O)[C@@H](CC(C)C)NC1=O", "note": "[Compound 2051] ({CH2CO}-RY(Carboxymethyl)D[Phe(3-Me)]Y[Bip]Y(Carboxymethyl)[Orn](Ac)[dL][Dab][Cha]VTC-NH2; thioether N-14)", "IC50": 48.5}
    ]}
  ]
}
